Experimental data reported in patent US9707231B2, “Compositions and methods for reduction of amyloid-beta load” (Modgene, LLC, priority 2011, dated 2017).
Where “and” joins values, the source holds several entries; their conditions need not be identical. Identical values can stand only once. Counter-ions that a name gives are not always drawn. Like-named read-outs stand apart in the source and are kept apart here.

How the values were obtained:
[1] = cited from earlier work
[2] = cited from earlier work; remark: listed apart in the source
Aβ [3] = assay: Aβ in media of SYSY-APP cells, Covance ELISA; assay type: cell-based
Procedure: • 1. Thaw SYSY-APP cells, add to warmed high glucose DMEM with 10% serum, pen-strep in t-75 flask. In 2 days, split culture into 4 flasks. Collect cells from 3 and freeze in liquid N2. Use remaining culture for experiment. • 2. Seed 24-well plate with cells in same media. Grow to confluence. • 3. […] After 16 hr incubation, isolate media, add 10 ul protease inhibitor and spin out cells and debris (3000×g); • 4.

[4] = cited from earlier work; remark: listed apart in the source
Abl kinase = molecular target: T1, Abl kinase (Homo sapiens, UniProt P00519); assay: Abl kinase activity, 32P-ATP / Abltide peptide, scintillation counting; assay type: biochemical; conditions: for Abl kinase activity, CPM (single assay): duplicates 1 and 2
T1 construct: purchased Millipore, Temecula, Calif
Procedure: The following were combined in order:
10 μL 2.5× kinase assay buffer
2.5 μL Abl kinase (Millipore, Temecula, Calif.)
1 μL DMSO vehicle or inhibitor in DMSO on ice
2.5 μL Abltide synthetic peptide substrate, biotin-tagged (Millipore, Temecula, Calif.) • Incubate at 30° C. for 10 min.; • Stop by the addition of 12.5 μL 7.5M guanidine HCL to each reaction, vortex. • Spot 12.5 μL on SAM2 biotin capture membrane (Promega Corp., Madison, Wis.) • Wash the membrane (4×2M NaCl; 4×2M NaCl, 1% H3PO4, 2×H2O, at room temp.) • Kinase activity was determined by scintillation counting. • The Scintillation count: final drug concentration shown • Each assay was performed in duplicate.

Aβ [5] = system: Aβ
Procedure: Wild-type C57B1/6 and DBA/2J male mice (age 8-12 weeks) were administered drug or vehicle twice daily for 7 days by intraperitoneal injection.
Animals were sacrificed 12 hr after the last injection. Individual mice were anesthetized with isoflurane and blood samples (100-300 ul) taken by cardiac puncture with heparinized syringes. Samples were placed on ice for 30 minutes in the presence of EDTA and then centrifuged for 20 minutes at 16,000×g at 4° C. The plasma fraction was removed and stored at −80° C. Brains were removed and frozen rapidly on dry ice and stored at −80° C.
Detection of mouse Aβ1-40 in blood and brain samples was performed by using a commercially available immunoassay kit (Biosource mouse Aβ1-40, Catalog No. KMB3481, Invitrogen, Carlsbad, Calif.) or by Western blot. Mouse brain samples were prepared by homogenizing brain tissue in a polytron in the presence of 5M guanidine HCl and 50 mM Tris HCl, pH 8.0 as described in the assay protocol.
Blood samples were diluted 1:5 in standard diluent buffer. Samples were assayed in duplicate and OD450 measured on a Tecan infinite 2000 plate reader.
For Western blots, samples were subjected to P AGE analysis, transferred to PVDF membranes and the Aβ hexamers were visualized using a monoclonal antibody 4G8 directed against mouse Aβ (1:1,000; Covance) using the manufacturer's recommended protocol. Blots were scanned by densitometry, and then reprobed with an antibody to histone H3 (1:50,000; Abcam) as a loading and transfer control. Data are depicted as normalized optical density.

[6] = 20 mg/kg IP twice daily 7 days, young and old B mice

T1 sequence (P00519 whole entry): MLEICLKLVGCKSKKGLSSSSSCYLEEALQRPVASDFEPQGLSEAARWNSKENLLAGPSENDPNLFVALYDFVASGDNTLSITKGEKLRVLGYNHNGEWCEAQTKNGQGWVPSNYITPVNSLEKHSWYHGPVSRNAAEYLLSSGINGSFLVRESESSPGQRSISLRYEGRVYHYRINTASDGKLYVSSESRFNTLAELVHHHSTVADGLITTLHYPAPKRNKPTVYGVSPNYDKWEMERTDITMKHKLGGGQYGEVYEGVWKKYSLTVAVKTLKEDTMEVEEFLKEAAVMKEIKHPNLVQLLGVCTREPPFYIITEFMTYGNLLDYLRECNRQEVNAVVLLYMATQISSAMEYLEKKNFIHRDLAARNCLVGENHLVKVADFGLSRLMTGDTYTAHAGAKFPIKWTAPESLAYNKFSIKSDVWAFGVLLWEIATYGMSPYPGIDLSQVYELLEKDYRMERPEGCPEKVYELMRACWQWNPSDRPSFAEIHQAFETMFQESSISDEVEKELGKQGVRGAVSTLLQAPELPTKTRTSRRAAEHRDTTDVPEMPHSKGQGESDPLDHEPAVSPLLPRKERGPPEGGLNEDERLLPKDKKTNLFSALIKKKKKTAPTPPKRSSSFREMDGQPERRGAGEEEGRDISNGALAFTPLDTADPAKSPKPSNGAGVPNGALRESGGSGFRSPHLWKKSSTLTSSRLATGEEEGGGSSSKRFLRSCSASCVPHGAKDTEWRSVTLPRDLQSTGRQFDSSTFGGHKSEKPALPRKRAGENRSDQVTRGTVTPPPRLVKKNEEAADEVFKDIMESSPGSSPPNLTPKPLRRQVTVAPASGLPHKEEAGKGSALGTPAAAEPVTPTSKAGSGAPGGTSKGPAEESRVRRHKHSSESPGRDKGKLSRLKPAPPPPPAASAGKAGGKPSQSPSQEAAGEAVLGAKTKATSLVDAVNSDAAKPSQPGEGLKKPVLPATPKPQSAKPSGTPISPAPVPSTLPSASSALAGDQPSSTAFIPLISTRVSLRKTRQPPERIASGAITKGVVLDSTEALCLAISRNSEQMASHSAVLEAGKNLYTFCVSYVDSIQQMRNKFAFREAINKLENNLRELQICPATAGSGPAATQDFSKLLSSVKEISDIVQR

Compound: COc1cc([S+](C)[O-])ccc1-c1nc2ncccc2[nH]1 (stereo not drawn) [ARL115, sulmazole]
- CNS side effects (in words) ([1]; humans): lack the CNS side effects
- log P, calcd. ([2]; calculated value): 1.82

Compound: COc1ccc(-c2nc3ncccc3[nH]2)c(OC)c1.Cl [ARL-57]
- CNS side effects (in words) ([1]; in vivo): spectacular bright color vision
- log P ([2]; pH 8): 2.59

Compound: Cc1cc(NC(=O)c2ccc(CN3CCN(C)CC3)cc2)ccc1Nc1nccc(-c2cccnc2)n1 [Imatinib para-diaminomethylbenzene 3 HCl]
- effect on Aβ concentration (in words) (Aβ [3]; 3-100 μM, 150 μL media supernatant, FIG. 7): stronger inhibition of Aβ than does imatinib

Compound: Cc1ccc(NC(=O)c2ccc(CN3CCNCC3)cc2)cc1Nc1nccc(-c2cccnc2)n1 [N-desmethyl imatinib]
- reduction of Aβ compared with imatinib (in words) (Aβ [3]; 3-100 uM, 16 hr, 100 μL aliquot, FIG. 6): more effective reduction of Aβ than does imatinib
- plasma AUC of the metabolite as share of the AUC for imatinib ([4]; humans): about 15%
- elimination half-life ([4]; oral administration in healthy volunteers): ~40 h
- Abl kinase activity, CPM (single assay) (Abl kinase; 10 μM final drug concentration, DMSO vehicle 2837/2956): 540 CPM and 649 CPM
- Abl kinase activity, AVERAGE of the two assays (Abl kinase; 10 μM, DMSO vehicle average 2897): 595 CPM
- Abl kinase activity, AVERAGE of the two assays (Abl kinase; 30 μM): 149 CPM
- Abl kinase activity, CPM (single assay) (Abl kinase; 30 μM final drug concentration): 149 CPM
- Abl kinase activity, AVERAGE of the two assays (Abl kinase; 100 μM): 107 CPM
- Abl kinase inhibition (in words) (Abl kinase; concentrations 10 to 100 μM, FIG. 8): inhibits Abl kinase less than does imatinib

Compound: Cc1ccc(NC(=O)c2ccc(CN3CCN(C)CC3)cc2)cc1Nc1nccc(-c2cccnc2)n1 [STI-571]
- reduction of brain levels of Aβ (Aβ [5]; [6]): approximately 50%
- reduction of plasma levels of Aβ (Aβ [5]; [6]): approximately 50%
- reduction of circulating (plasma) Aβ (Aβ [5]; highest dose (100 mg/kg) IP twice daily 7 days, young D2 mice): approximately 75%

Compound: Cc1ccc(NC(=O)c2ccc(CN3CCN(C)CC3)cc2)cc1Nc1nccc(-c2cccnc2)n1 [imatinib, reference compound]
- Cmax (time) ([4]; oral administration in pediatric patients): 2 to 4 h
